In US20110105408A1, “THERAPEUTIC PEPTIDES” (INTER-K PTY LIMITED, priority 2008, published 2011):

Tested on: phospho-ERK in HT29 cells
Assay: Phospho-ERK ELISA (FACE ERK1/2 kit) in HT29 cells
Assay type: cell-based, human
Experimental: HT29 cells were harvested using 0.5% trypsin EDTA (Invitrogen) and 5000 cells were resuspended into 200 μL, and added to each well of a clear NUNC tissue culture treated 96 well plate (NUNC). Cells were seeded in DMEM media (Invitrogen) supplemented with 10% v/v foetal calf serum (FCS, Invitrogen), 1% L-Glutamine (Invitrogen) and 2% 1M HEPES buffer solution (Invitrogen). Cells were then incubated overnight at 37° C. The following day, the growth medium was replaced with 100 μL of serum-free DMEM supplemented with 1% L-glutamine and 2% 1M HEPES buffer solution, and incubated for a further 24 hours at 37° C. Dendrimers were added to test wells in serum free medium to provide final concentrations of the dendrimers ranging from 0.1-20 μLA. The total volume of each well was 200 uL, and cells were incubated at 37° C. for times ranging from 5 minutes to 4 hours. In those studies in which cells were subjected to stimulation by serum, 22 μL FCS (10% v/v final concentration) was added to wells for the final ten minutes of the culture period at 37° C. Serum-free media (SFM) only (22 μL) was added to non-serum stimulated cells.
Phospho-ERK levels were determined using the FACE ERK1/2 ELISA kit according to the manufacturer's instructions (Active Motif, kit obtained from Australian Biosearch, WA, Australia). Briefly, media was replaced and cells fixed with 4% formaldehyde in PBS, and after a 1 hour with antibody blocking buffer (supplied), the primary phospho-ERK or total-ERK antibody was added and incubated overnight at 4° C. Antibody dilution buffer only was added to control test wells containing no primary antibody. The next day, HRP-conjugated secondary antibody was added for one hour before plates were developed and the absorbance measured at 450 nm using a Labsystems Multiskan EX microplate reader (Labsystems, Thermo Labsystems, UK).
The effectiveness of the peptide dendrimer IK248 described in Example 2 in inhibiting growth factor mediated activation of ERK in HT29 cancer cells (i.e., (FCS stimulated) compared to various agents comprising the polypeptide RSKAKNPLYR (SEQ ID No. 6) coupled to different peptide facilitator moieties for facilitating passage of the polypeptide across the plasma cell membrane into the cytosol of the cells was evaluated. Phospho-ERK levels in the cells following treatment with 5 μM IK248 (Dend 8) for 1 hour or polypeptide-facilitator moiety agents (each at 5 μM for the same duration) were measured essentially as described in Example 1.3. The facilitator moieties utilised were the signal peptide fragment AAVALLPAVLLALLA (SEQ ID No. 16), the TAT-G peptide GRKKRRQRRRPPQG (SEQ ID No. 17), a modified pentratin sequence Tr-Pen RRQKWKKG (SEQ ID No. 18), and the penetratin peptide RQIKIWFQNRRMKWKKCS—SC (SEQ ID No. 19) wherein S—S indicates a disulphide bridge between the adjacent cysteine residues.
The peptide RSKAKNPLYR (SEQ ID. No. 6) or peptide dendrimers of the type illustrated in FIG. 3 comprising lysine branching units presenting either 8 (IK248) or 10 (IK248B) monomer units of the peptide RSKAKNPLYR (SEQ ID No. 6) were utilised in this study. Phospho-ERK levels were evaluated by ELISA utilising an Active Motif FACE ERK1/2 ELISA kit (Australian Biosearch, WA, Australia) as described in Example 1.3.

With `CC(C)C[C@H](NC(=O)[C@@H]1CCCN1C(=O)[C@H](CC(N)=O)NC(=O)[C@H](CCCCN)NC(=O)[C@H](C)NC(=O)[C@H](CCCCN)NC(=O)[C@H](CO)NC(=O)[C@@H](N)CCCNC(=N)N)C(=O)N[C@@H](Cc1ccc(O)cc1)C(=O)N[C@@H](CCCNC(=N)N)C(=O)NCCCC[C@H](NC(=O)[C@H](CCCCNC(=O)[C@H](CCCCNC(=O)[C@H](CCCNC(=N)N)NC(=O)[C@H](Cc1ccc(O)cc1)NC(=O)[C@H](CC(C)C)NC(=O)[C@@H]1CCCN1C(=O)[C@H](CC(N)=O)NC(=O)[C@H](CCCCN)NC(=O)[C@H](C)NC(=O)[C@H](CCCCN)NC(=O)[C@H](CO)NC(=O)[C@@H](N)CCCNC(=N)N)NC(=O)[C@H](CCCNC(=N)N)NC(=O)[C@H](Cc1ccc(O)cc1)NC(=O)[C@H](CC(C)C)NC(=O)[C@@H]1CCCN1C(=O)[C@H](CC(N)=O)NC(=O)[C@H](CCCCN)NC(=O)[C@H](C)NC(=O)[C@H](CCCCN)NC(=O)[C@H](CO)NC(=O)[C@@H](N)CCCNC(=N)N)NC(=O)[C@H](CCCCNC(=O)[C@H](CCCNC(=N)N)NC(=O)[C@H](Cc1ccc(O)cc1)NC(=O)[C@H](CC(C)C)NC(=O)[C@@H]1CCCN1C(=O)[C@H](CC(N)=O)NC(=O)[C@H](CCCCN)NC(=O)[C@H](C)NC(=O)[C@H](CCCCN)NC(=O)[C@H](CO)NC(=O)[C@@H](N)CCCNC(=N)N)NC(=O)[C@H](CCCNC(=N)N)NC(=O)[C@H](Cc1ccc(O)cc1)NC(=O)[C@H](CC(C)C)NC(=O)[C@@H]1CCCN1C(=O)[C@H](CC(N)=O)NC(=O)[C@H](CCCCN)NC(=O)[C@H](C)NC(=O)[C@H](CCCCN)NC(=O)[C@H](CO)NC(=O)[C@@H](N)CCCNC(=N)N)C(=O)NCCCC[C@H](NC(=O)[C@H](CCCCNC(=O)[C@H](CCCNC(=N)N)NC(=O)[C@H](Cc1ccc(O)cc1)NC(=O)[C@H](CC(C)C)NC(=O)[C@@H]1CCCN1C(=O)[C@H](CC(N)=O)NC(=O)[C@H](CCCCN)NC(=O)[C@H](C)NC(=O)[C@H](CCCCN)NC(=O)[C@H](CO)NC(=O)[C@@H](N)CCCNC(=N)N)NC(=O)[C@H](CCCCNC(=O)[C@H](CCCCNC(=O)[C@H](CCCNC(=N)N)NC(=O)[C@H](Cc1ccc(O)cc1)NC(=O)[C@H](CC(C)C)NC(=O)[C@@H]1CCCN1C(=O)[C@H](CC(N)=O)NC(=O)[C@H](CCCCN)NC(=O)[C@H](C)NC(=O)[C@H](CCCCN)NC(=O)[C@H](CO)NC(=O)[C@@H](N)CCCNC(=N)N)NC(=O)[C@H](CCCNC(=N)N)NC(=O)[C@H](Cc1ccc(O)cc1)NC(=O)[C@H](CC(C)C)NC(=O)[C@@H]1CCCN1C(=O)[C@H](CC(N)=O)NC(=O)[C@H](CCCCN)NC(=O)[C@H](C)NC(=O)[C@H](CCCCN)NC(=O)[C@H](CO)NC(=O)[C@@H](N)CCCNC(=N)N)NC(=O)[C@H](CCCCNC(=O)[C@H](CCCNC(=N)N)NC(=O)[C@H](Cc1ccc(O)cc1)NC(=O)[C@H](CC(C)C)NC(=O)[C@@H]1CCCN1C(=O)[C@H](CC(N)=O)NC(=O)[C@H](CCCCN)NC(=O)[C@H](C)NC(=O)[C@H](CCCCN)NC(=O)[C@H](CO)NC(=O)[C@@H](N)CCCNC(=N)N)NC(=O)[C@H](CCCNC(=N)N)NC(=O)[C@H](Cc1ccc(O)cc1)NC(=O)[C@H](CC(C)C)NC(=O)[C@@H]1CCCN1C(=O)[C@H](CC(N)=O)NC(=O)[C@H](CCCCN)NC(=O)[C@H](C)NC(=O)[C@H](CCCCN)NC(=O)[C@H](CO)NC(=O)[C@@H](N)CCCNC(=N)N)C(=O)NCCC(N)=O` [IK248B] as the molecule, how does the “phospho-ERK levels relative to control cells, dose response” value (HI FCS stimulated HT29 cells) read?
The value was “decreased relative to control cells with progressively increasing dosages”.

And the “ERK activity (as indicated by phospho-ERK levels)” value (HI FCS stimulated HT29 cells, 10 μM (data not shown))?
The value was “entirely inhibited”.

What about the phospho-ERK levels (HI FCS stimulated HT29 cells, dose of 5 μM) of the same molecule?
The phospho-ERK levels was “almost totally abrogated”.

And the “phospho-ERK levels in HT29 cells compared to normal skin fibroblast cells (selectivity for cancer cells)” value (data not shown)?
Its value is “significantly reduced compared to normal skin fibroblast cells”.

And the “basal phospho-ERK level relative to control cells” value (not FCS stimulated, 0.1, 0.5, 1 and 5 μM, 4 hr incubation)?
Its value is “did not stimulate basal phospho-ERK levels”.
